Measured values taken from US20210198277A1, “AMINE-SUBSTITUTED ARYL OR HETEROARYL COMPOUNDS” (Epizyme, Inc., priority 2016, published 2021).

Tests used:
EHMT1 = biological target: T1, EHMT1 (Homo sapiens, UniProt Q9H9B1); assay: EHMT1 enzyme assay on peptide substrate (EHMT1 PEP); format: biochemical; conditions: read-out: EHMT1 PEP (IC50 μM)
T1 sequence (Q9H9B1 1-1298): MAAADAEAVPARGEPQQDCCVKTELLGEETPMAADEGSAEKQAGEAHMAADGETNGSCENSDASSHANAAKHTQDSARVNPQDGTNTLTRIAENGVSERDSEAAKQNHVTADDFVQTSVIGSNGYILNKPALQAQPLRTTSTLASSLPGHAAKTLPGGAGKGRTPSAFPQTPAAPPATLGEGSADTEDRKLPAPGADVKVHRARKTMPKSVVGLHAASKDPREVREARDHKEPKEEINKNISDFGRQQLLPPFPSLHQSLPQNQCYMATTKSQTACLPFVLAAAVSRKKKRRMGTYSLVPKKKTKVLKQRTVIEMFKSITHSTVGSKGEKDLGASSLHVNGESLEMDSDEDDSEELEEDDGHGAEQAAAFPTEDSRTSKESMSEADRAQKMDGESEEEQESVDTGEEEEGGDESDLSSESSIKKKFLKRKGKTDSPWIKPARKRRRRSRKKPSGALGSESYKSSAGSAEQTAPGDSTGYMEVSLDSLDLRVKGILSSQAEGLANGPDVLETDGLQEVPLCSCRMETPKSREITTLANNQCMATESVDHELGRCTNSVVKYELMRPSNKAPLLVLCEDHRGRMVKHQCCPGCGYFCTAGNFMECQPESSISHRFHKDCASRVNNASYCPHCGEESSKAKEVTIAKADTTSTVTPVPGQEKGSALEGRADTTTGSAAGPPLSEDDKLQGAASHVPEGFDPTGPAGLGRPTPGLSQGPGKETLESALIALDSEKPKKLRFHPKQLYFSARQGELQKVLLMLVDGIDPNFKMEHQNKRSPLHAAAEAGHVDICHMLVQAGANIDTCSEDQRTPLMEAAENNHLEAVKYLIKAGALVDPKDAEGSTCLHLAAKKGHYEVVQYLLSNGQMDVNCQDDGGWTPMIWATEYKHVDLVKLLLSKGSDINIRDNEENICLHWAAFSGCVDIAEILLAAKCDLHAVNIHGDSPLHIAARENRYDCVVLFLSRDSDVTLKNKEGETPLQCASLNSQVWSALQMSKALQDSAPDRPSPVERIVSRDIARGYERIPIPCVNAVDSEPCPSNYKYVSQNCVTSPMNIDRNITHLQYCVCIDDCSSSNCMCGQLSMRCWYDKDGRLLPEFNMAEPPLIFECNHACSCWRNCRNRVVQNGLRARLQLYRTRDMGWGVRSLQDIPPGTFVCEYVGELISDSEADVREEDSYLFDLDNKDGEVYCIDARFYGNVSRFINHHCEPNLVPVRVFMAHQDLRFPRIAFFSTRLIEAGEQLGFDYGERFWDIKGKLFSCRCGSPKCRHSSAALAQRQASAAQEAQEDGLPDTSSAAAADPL

human EHMT2 913-1193 = biological target: T2, human EHMT2 913-1193 (Homo sapiens, UniProt Q96KQ7); assay: EHMT2 enzyme assay on histone peptide substrate (EHMT2 PEP); format: biochemical; conditions: recombinant human EHMT2 913-1193, histone H3 1-15 peptide, balanced conditions; read-out: EHMT2 PEP (IC50 μM)
T2 construct: recombinant purified human EHMT2 913-1193, Viva; purchased Viva
T2 sequence (Q96KQ7 913-1193): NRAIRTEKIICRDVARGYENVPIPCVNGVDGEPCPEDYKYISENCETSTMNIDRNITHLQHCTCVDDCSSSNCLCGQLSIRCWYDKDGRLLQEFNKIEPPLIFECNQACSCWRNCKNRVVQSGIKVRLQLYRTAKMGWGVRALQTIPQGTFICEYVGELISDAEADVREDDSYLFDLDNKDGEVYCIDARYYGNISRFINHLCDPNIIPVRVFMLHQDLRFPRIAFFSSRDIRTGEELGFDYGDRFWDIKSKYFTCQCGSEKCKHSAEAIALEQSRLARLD
Procedure, shortened: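 Inhibition is measured as reduced tritium incorporation into a biotinylated histone peptide from ^3H-SAM. The enzyme (0.031 nM) sees compound for 30 minutes before a 60-minute room-temperature reaction, which unlabeled SAM quenches prior to streptavidin Flashplate capture.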

IC50 (EHMT1) | IC50 (human EHMT2 913-1193) | SMILES
< 0.1 µM | < 0.1 µM | COc1ncc(Nc2nc(C)cc(NCC3CCOCC3)n2)cc1OCCCN1CCCC1 [Compound 591]
0.1 to 1 µM | 0.1 to 1 µM | COc1ncc(Nc2nc(C)cc(NCC3CCOCC3)n2)cc1OC[C@@H]1CCN(C(C)C)C1 [Compound 592]
0.1 to 1 µM | 0.1 to 1 µM | COc1ncc(Nc2nc(C)cc(NC(C)C)n2)cc1OCCCN1CCCC1 [Compound 593]
< 0.1 µM | 0.1 to 1 µM | COc1ncc(Nc2nc(C)cc(NCC3CCOCC3)n2)cc1OC[C@@H]1CCN(C2CCC2)C1 [Compound 594]
0.1 to 1 µM | 0.1 to 1 µM | COc1ncc(Nc2nc(C)cc(NCC3CCOCC3)n2)cc1OC[C@@H]1CCN(C2CCC2)C1 [Compound 595]
1 to 10 µM | 1 to 10 µM | COc1cnc(Nc2cc(C)nc3[nH]ncc23)cc1OCCCN1CCCC1 [Compound 596]
> 10 µM | > 10 µM | C/C=C/C(=O)Nc1cc(OCCCN2CCCC2)c(OC)cn1 [Compound 597]
> 10 µM | > 10 µM | C/C=C/C(=O)Nc1ccc(OC)c(OCCCN2CCCC2)c1 [Compound 598]
< 0.1 µM | 0.1 to 1 µM | CCN1CC[C@@H](COc2cc(Nc3nc(C)cc(NC)n3)cnc2OC)C1 [Compound 599]
< 0.1 µM | < 0.1 µM | CNc1cc(C)nc(Nc2ccc(OC)c(OC[C@@H]3CCNC3)c2)n1 [Compound 600]
< 0.1 µM | 0.1 to 1 µM | CCc1cc(NC)nc(Nc2cnc(OC)c(OC[C@@H]3CCN(CC)C3)c2)n1 [Compound 601]
0.1 to 1 µM | 0.1 to 1 µM | CCN1CC[C@@H](COc2cc(Nc3nc(C)cc(NC(C)C)n3)ccc2OC)C1 [Compound 602]
< 0.1 µM | < 0.1 µM | COc1ccc(Nc2nc(C)cc(NC(C)C)n2)cc1OCCCN1CCCC1 [Compound 603]
